Reference: publication PMC12514245, “Impaired migration and lung invasion of human melanoma by a novel small molecule targeting the transmembrane domain of death receptor p75^NTR” (EMBO Molecular Medicine, 2025)
Several values for one entry are separate records, joined by “and”; a condition that tells them apart may be missing. Equal entries are not always repeated.

Test system: A875 shp75 cells
Assay: Wound healing cell motility assay, A875 shp75
Assay type: cell-based, human
Details: for Wound area, Mean: N=3; for Wound area (Fold): A875 shp75, 1uM
Procedure: For wound healing assay, cells were grown until confluency and subjected to a wound across the cell mono-layer. Cells were then incubated with serum-free media either with DMSO or a small molecule (with or without 5 µM Q_VD_poH) and imaged at specific time-points. Cell migration is reflected as fold change in wound area over time.

[1] = 5μM Q_VD_poH + 10μM Div17E5, 0 hours
[2] = 5μM Q_VD_poH + 10μM Div17E5, 3 hours
[3] = 5μM Q_VD_poH + 10μM Div17E5, 6 hours
[4] = 5μM Q_VD_poH + 10μM Div17E5, 9 hours
[5] = 5μM Q_VD_poH + 10μM Div17E5, 12 hours
[6] = 5μM Q_VD_poH + 10μM Div17E5, 15 hours
[7] = 5μM Q_VD_poH + 10μM Div17E5, 18 hours
[8] = 5μM Q_VD_poH + 10μM Div17E5, 21 hours
[9] = 5μM Q_VD_poH + 10μM Div17E5, 24 hours

## Oc1ccc(-c2cncc(Nc3ccc(Br)c(Cl)c3)n2)cc1 [Div17E5]
  wound closure: did not significantly affect wound closure
[1]
  Wound area, n1-n3: 0.989 Fold and 0.886 Fold and 1.125 Fold
  Wound area, Mean: 1.000 Fold
[2]
  Wound area, n1-n3: 0.947 Fold and 0.979 Fold and 1.007 Fold
  Wound area, Mean: 0.978 Fold
[3]
  Wound area, n1-n3: 0.959 Fold and 0.975 Fold and 0.953 Fold
  Wound area, Mean: 0.962 Fold
[4]
  Wound area, n1-n3: 0.955 Fold and 0.965 Fold and 0.942 Fold
  Wound area, Mean: 0.954 Fold
[5]
  Wound area, n1-n3: 0.935 Fold and 0.950 Fold and 0.940 Fold
  Wound area, Mean: 0.941 Fold
[6]
  Wound area, n1-n3: 0.901 Fold and 0.902 Fold and 0.903 Fold
  Wound area, Mean: 0.902 Fold
[7]
  Wound area, n1-n3: 0.849 Fold and 0.823 Fold
  Wound area, Mean: 0.840 Fold
[8]
  Wound area, n1-n3: 0.828 Fold and 0.801 Fold and 0.783 Fold
  Wound area, Mean: 0.804 Fold
[9]
  Wound area, n1-n3: 0.790 Fold and 0.822 Fold and 0.793 Fold
  Wound area, Mean: 0.801 Fold
10μM Div17E5, 0 hours
  Wound area, n1-n3: 1.039 Fold and 1.010 Fold and 0.951 Fold
  Wound area, Mean: 1.000 Fold
10μM Div17E5, 3 hours
  Wound area, n1-n3: 0.987 Fold and 0.961 Fold and 0.970 Fold
  Wound area, Mean: 0.973 Fold
10μM Div17E5, 6 hours
  Wound area, n1-n3: 0.982 Fold and 0.933 Fold and 0.919 Fold
  Wound area, Mean: 0.945 Fold
10μM Div17E5, 9 hours
  Wound area, n1-n3: 0.959 Fold and 0.914 Fold and 0.881 Fold
  Wound area, Mean: 0.918 Fold
10μM Div17E5, 12 hours
  Wound area, n1-n3: 0.961 Fold and 0.889 Fold and 0.887 Fold
  Wound area, Mean: 0.912 Fold
10μM Div17E5, 15 hours
  Wound area, n1-n3: 0.930 Fold and 0.849 Fold and 0.852 Fold
  Wound area, Mean: 0.877 Fold
10μM Div17E5, 18 hours
  Wound area, n1-n3: 0.858 Fold and 0.787 Fold and 0.795 Fold
  Wound area, Mean: 0.813 Fold
10μM Div17E5, 21 hours
  Wound area, n1-n3: 0.855 Fold and 0.772 Fold and 0.767 Fold
  Wound area, Mean: 0.798 Fold
10μM Div17E5, 24 hours
  Wound area, n1-n3: 0.867 Fold and 0.765 Fold and 0.792 Fold
  Wound area, Mean: 0.808 Fold
0 h, Mean
  Wound area (Fold): 1.000 Fold
0 h, n1
  Wound area (Fold): 0.980 Fold
0 h, n2
  Wound area (Fold): 1.053 Fold
0 h, n3
  Wound area (Fold): 0.966 Fold
3 h, Mean
  Wound area (Fold): 0.957 Fold
3 h, n1
  Wound area (Fold): 0.947 Fold
3 h, n2
  Wound area (Fold): 0.963 Fold
3 h, n3
  Wound area (Fold): 0.960 Fold
6 h, Mean
  Wound area (Fold): 0.921 Fold
6 h, n1
  Wound area (Fold): 0.914 Fold
6 h, n2
  Wound area (Fold): 0.924 Fold
6 h, n3
  Wound area (Fold): 0.923 Fold
9 h, Mean
  Wound area (Fold): 0.898 Fold
9 h, n1
  Wound area (Fold): 0.889 Fold
9 h, n2
  Wound area (Fold): 0.905 Fold
9 h, n3
  Wound area (Fold): 0.901 Fold
12 h, Mean
  Wound area (Fold): 0.873 Fold
12 h, n1
  Wound area (Fold): 0.869 Fold
12 h, n2
  Wound area (Fold): 0.870 Fold
12 h, n3
  Wound area (Fold): 0.881 Fold
15 h, Mean
  Wound area (Fold): 0.847 Fold
15 h, n1
  Wound area (Fold): 0.839 Fold
15 h, n2
  Wound area (Fold): 0.841 Fold
15 h, n3
  Wound area (Fold): 0.861 Fold
18 h, Mean
  Wound area (Fold): 0.821 Fold
18 h, n1
  Wound area (Fold): 0.821 Fold
18 h, n2
  Wound area (Fold): 0.823 Fold
18 h, n3
  Wound area (Fold): 0.820 Fold
21 h, Mean
  Wound area (Fold): 0.792 Fold
21 h, n1
  Wound area (Fold): 0.780 Fold
21 h, n2
  Wound area (Fold): 0.797 Fold
21 h, n3
  Wound area (Fold): 0.800 Fold
24 h, Mean
  Wound area (Fold): 0.773 Fold
24 h, n1
  Wound area (Fold): 0.775 Fold
24 h, n2
  Wound area (Fold): 0.773 Fold
24 h, n3
  Wound area (Fold): 0.771 Fold
